Test results as given in publication PMC10162847 (Phytomedicine, 2023).
Read-outs that look alike come from different tables or passages of the source.

What was measured:
[1] = system: SARS-CoV-2; format: cell-based; settings: VeroE6 cells, concentration-dependent
[2] = system: HCoV-229E; assay: microbe, parasite or virus in culture; format: cell-based; settings: Human coronavirus 229E
[3] = in vitro; settings: human
[4] = KM mice, oral 6000 mg/kg (2000 mg/kg 3 times within 24 h), 7 days observation
[5] = system: dimethylbenzene-induced auricular edema
[6] = molecular target: interactions between the RBD^WT and ACE2 protein (Severe acute respiratory syndrome coronavirus 2, UniProt P0DTC2); format: binding; settings: ELISA
[7] = system: carrageenan-induced paw edema; assay: Carrageenan-induced paw edema in rats; format: in vivo, Sprague-Dawley (SD) rats; settings: oral 50, 100, 200 mg/kg for 7 days, 2nd-5th h after carrageenan injection
[8] = system: RIPK1/NF-κB pathway in THP1 macrophages; format: cell-based
[9] = system: LPS-induced acute lung injury; format: in vivo, C57BL/6 mice; settings: ALI mice
[10] = system: DNFB-induced ear edema; settings: DTH model
[11] = system: SARS-CoV-2 pseudo typed lentivirus; format: cell-based; settings: fluorescence signal, 0-300 μM, pre-incubation 0.5 h
[12] = system: Vero E6 cells; settings: MTT, 72 h
[13] = Huh-7, read-out: EC50, HCoV-229E replication, CPE assay
[14] = Huh-7, read-out: EC50, HCoV-229E replication, MTT assay
[15] = western blotting, THP1 macrophages
[16] = oral pre-treatment 200, 300, 400 mg/kg

Row | SMILES | SARS-CoV-2 proliferation [1] | EC50 [2, 13] [µM] | EC50 [2, 14] [µM] | CC50 [3] [µM] | acute toxicity, exposure-related clinical symptoms [4] | immune organ toxicity ([5]; dimethylbenzene-induced auricular edema model) | edema formation in the dermis ([5]; dimethylbenzene-induced auricular edema, 7 days pre-treatment) | interactions between the RBD^WT and ACE2 protein [6] | inflammatory activity (paw edema) [7] | RIPK1 expression levels and mRNA levels of NF-κBp65, RIPK3, RIPK1, MLKL, FADD, Caspase8 and JNK ([8]; LPS-induced THP1 macrophages, 100, 200, 400 μM) | RIPK1, phosphorylation of NF-κBp65 and RIPK1 induced by LPS stimulation [8, 15] | abundance of the NF-κBp65 protein among the total proteins [8, 15] | mRNA levels of TNFα, IL-6 and NF-κBp65 in the lung tissues [9] | alveolar inflammation [9, 16] | lung edema [9, 16] | organ damage ([10]; BALB/c mice) | mouse ear thickness ([10]; oral 50, 100, 200 mg/kg, 20, 40, 60 and 80 min after modeling) | binding of the SARS-CoV-2 pseudo typed lentivirus to HEK293-hACE2-mCherry cells [11] | CC50 [12] [µM]
1 | CCC(CC)COC(=O)[C@H](C)N[P@](=O)(OC[C@H]1O[C@@](C#N)(c2ccc3c(N)ncnn23)[C@H](O)[C@@H]1O)Oc1ccccc1 [remdesivir, reference compound] | inhibited | 0.0562 | 0.0583 | 108 |  |  |  |  |  |  |  |  |  |  |  |  |  |  | 
2 | O=c1c(O)c(-c2cc(O)c(O)c(O)c2)oc2cc(O)cc(O)c12 [myricetin, 3,5,7-trihydroxy-2-(3,4,5-tri hydroxyphenyl)-4-benzopyrone] |  | 53.5 | 61.5 |  | no exposure-related clinical signs | without immune organ toxicity | significantly suppressed | significantly inhibited | significantly reduce | significantly reduced | significantly inhibited | unaltered | significantly downregulated | decreased the alveolar inflammation | alleviated lung edema | without any organ damage | decreased | repressed | 248
